According to ChEMBL document CHEMBL4421737, “D-3-phosphoglycerate dehydrogenase allosteric inhibitor and use thereof” (2018):
Activity calls are given as the source filed them. The rule behind the calls is not given here.

Assays:
ZR-75-1 = assay: Cytotoxicity against human ZR-75-1 cells assessed as reduction in cell viability incubated for 72 hrs by MTT assay; assay type: functional, cell-based; details: ZR-75-1, 72 h
MDA-MB-468 [1] = assay: Antitumor activity against human MDA-MB-468 cells xenografted in NOD.CB17-Prkdc scid/J mouse assessed as inhibition of tumor growth at 20 mg/kg/day measured every two days up to 70 days post treatment initiation; assay type: functional, organism-based
MDA-MB-231 = assay: Cytotoxicity against human MDA-MB-231 cells assessed as reduction in cell viability incubated for 72 hrs by MTT assay; assay type: functional, cell-based; details: MDA-MB-231, 72 h
MDA-MB-468 [2] = assay: Antitumor activity against human MDA-MB-468 cells xenografted in NOD.CB17-Prkdc scid/J mouse assessed as inhibition of tumor growth at 20 mg/kg/day co-treated with 2.5mg/kg/4day doxorubicin measured every two days up to 11 days post treatment initiation relative to doxorubicin alone; assay type: functional
MCF7 = assay: Cytotoxicity against human MCF7 cells assessed as reduction in cell viability incubated for 72 hrs by MTT assay; assay type: functional, cell-based; details: MCF7, 72 h
MDA-MB-468 [3] = assay: Antitumor activity against human MDA-MB-468 cells xenografted in NOD.CB17-Prkdc scid/J mouse assessed as inhibition of tumor growth at 20 mg/kg/day co-treated with 2.5mg/kg/4day doxorubicin measured every two days up to 11 days post treatment initiation relative to compound alone; assay type: functional
HCC70 = assay: Cytotoxicity against human HCC70 cells assessed as reduction in cell viability incubated for 72 hrs by MTT assay; assay type: functional, cell-based; details: HCC70, 72 h
MCF-10A = assay: Cytotoxicity against human MCF10A cells assessed as reduction in cell viability incubated for 72 hrs by MTT assay; assay type: cell-based
DLD-1 = assay: Cytotoxicity against human DLD1 cells assessed as reduction in cell viability incubated for 72 hrs by MTT assay; assay type: functional, cell-based; details: DLD-1, 72 h
MDA-MB-468 [4] = assay: Cytotoxicity against human MDA-MB-468 cells assessed as reduction in cell viability incubated for 72 hrs by MTT assay; assay type: functional, cell-based; details: MDA-MB-468, 72 h
MDA-MB-468 [5] = assay: Induction of cell cycle arrest in human MDA-MB-468 cells assessed as accumulation at G0/G1 phase at 10 to 160 uM incubated for 24 hrs by propidium iodide staining based flow cytometry; assay type: functional
MDA-MB-468 [6] = assay: Induction of cell cycle arrest in human MDA-MB-468 cells assessed as accumulation at G0/G1 phase at 2.5 to 40 uM incubated for 24 hrs by propidium iodide staining based flow cytometry; assay type: functional

Row | SMILES | EC50 (ZR-75-1) | TGI (MDA-MB-468 [1]) | EC50 (MDA-MB-231) | TGI (MDA-MB-468 [2]) | EC50 (MCF7) | TGI (MDA-MB-468 [3]) | EC50 (HCC70) | EC50 (MCF-10A) | EC50 (DLD-1) | EC50 (MDA-MB-468 [4]) | Activity (MDA-MB-468 [5]) | Activity (MDA-MB-468 [6])
1 | CCNC(=S)N/N=C/c1ccc(-c2ccc(C(=O)O)c(Cl)c2)o1 | 125 µM | Active | > 200 µM | 41% | > 200 µM | 41% | 10 µM | 64.7 µM | 167 µM | 6.9 µM | Active | 
2 | O=C(N/N=C/c1cc([N+](=O)[O-])ccc1O)c1ccc(O)cc1O | 83.4 µM | Active | 27.7 µM |  |  |  | 10.8 µM | 45.8 µM | 18.3 µM | 7.7 µM |  | Active
